Data published in US20040180394A1, “Assays for inositol phosphates” (priority 2001, published 2004).
Where no end group is shown, it is not given here.

Assays:
untransfected T24 cells = assay: Inositol phosphate SPA assay in untransfected T24 cells; format: cell-based; settings: 1 mM carbachol
parent T24 cell line = assay: FLIPR intracellular calcium in parent T24 cell line; format: cell-based
[1] = system: acetylcholine receptors naturally expressed in HEK293 cells; assay: Inositol phosphate SPA assay in wild-type HEK293 cells; format: cell-based, human; settings: 1 mM carbachol, 5 mM LiCl where used (FIG. 9)
From the text: See Example 8 for details.

[2] = system: untransfected CHO/NFAT cells; assay: Inositol phosphate assay in untransfected CHO/NFAT cells; format: cell-based; settings: untransfected CHO/NFAT cells (FIGS. 7A-D), 10 nM NPFF
From the text: There was no response to NPFF in untransfected CHO/NFAT cells (FIGS. 7A-D).

Molecule | response to agonist (inositol phosphates) (untransfected T24 cells) | rise in intracellular calcium (parent T24 cell line) | inositol phosphate level [1] | response to agonist (inositol phosphates) [2]
C[N+](C)(C)CCOC(N)=O [carbachol] | no response | no rise in intracellular calcium | increase of inositol phosphate | 
NPFF: agonist used at 10 nM to activate the human neuropeptide FF receptor (FLFQPQRF; ends and bridges not checked; UniProt O15130 69-76, looked up) |  |  |  | no response
